# From PubChem BioAssay AID1259407 (Chemical Carcinogenesis Research Information System (CCRIS), 2018)
# Active and inactive are the calls of the source. The rule behind the calls is not given here.
# System: CCRIS mutagenicity, Ames/micronucleus/aberration tests
# Assay: CCRIS mutagenicity studies
# [1] = Test System: AMES SALMONELLA TYPHIMURIUM, Strain/Indicator: TA98, Metabolic Activation: NONE, Method: STANDARD PLATE
# [2] = Test System: AMES SALMONELLA TYPHIMURIUM, Strain/Indicator: TA98, Metabolic Activation: RAT LIVER S-9, AROCLOR 1254, Method: STANDARD PLATE
# [3] = Test System: AMES SALMONELLA TYPHIMURIUM, Strain/Indicator: TA100, Metabolic Activation: NONE, Method: STANDARD PLATE
# [4] = Test System: AMES SALMONELLA TYPHIMURIUM, Strain/Indicator: TA100, Metabolic Activation: RAT LIVER S-9, AROCLOR 1254, Method: STANDARD PLATE
# [5] = Test System: AMES SALMONELLA TYPHIMURIUM, Strain/Indicator: TA1537, Metabolic Activation: NONE, Method: STANDARD PLATE
# [6] = Test System: AMES SALMONELLA TYPHIMURIUM, Strain/Indicator: TA1537, Metabolic Activation: RAT LIVER S-9, AROCLOR 1254, Method: STANDARD PLATE
# [7] = Test System: AMES SALMONELLA TYPHIMURIUM, Strain/Indicator: TA1977, Metabolic Activation: NONE, Method: STANDARD PLATE
# [8] = Test System: AMES SALMONELLA TYPHIMURIUM, Strain/Indicator: TA1977, Metabolic Activation: RAT LIVER S-9, AROCLOR 1254, Method: STANDARD PLATE
# [9] = Test System: AMES SALMONELLA TYPHIMURIUM, Strain/Indicator: TA1535, Metabolic Activation: NONE, Method: STANDARD PLATE
# [10] = Test System: AMES SALMONELLA TYPHIMURIUM, Strain/Indicator: TA1538, Metabolic Activation: NONE, Method: STANDARD PLATE
compound,measurement,setting,value
Nc1nc(=O)n([C@H]2C[C@H](O)[C@@H](CO)O2)cc1CCCl,mutagenic call,"Test System: AMES SALMONELLA TYPHIMURIUM, Strain/Indicator: TA97, Metabolic Activation: NONE, Method: PREINCUBATION",inactive; negative
same,mutagenic call,"Test System: AMES SALMONELLA TYPHIMURIUM, Strain/Indicator: TA97, Metabolic Activation: RAT, LIVER, S-9, AROCLOR 1254, Method: PREINCUBATION",inactive; negative
same,mutagenic call,"Test System: AMES SALMONELLA TYPHIMURIUM, Strain/Indicator: TA98, Metabolic Activation: NONE, Method: PREINCUBATION",inactive; negative
same,mutagenic call,"Test System: AMES SALMONELLA TYPHIMURIUM, Strain/Indicator: TA98, Metabolic Activation: RAT, LIVER, S-9, AROCLOR 1254, Method: PREINCUBATION",inactive; negative
same,mutagenic call,"Test System: AMES SALMONELLA TYPHIMURIUM, Strain/Indicator: TA100, Metabolic Activation: NONE, Method: PREINCUBATION",inactive; negative
same,mutagenic call,"Test System: AMES SALMONELLA TYPHIMURIUM, Strain/Indicator: TA100, Metabolic Activation: RAT, LIVER, S-9, AROCLOR 1254, Method: PREINCUBATION",inactive; negative
same,mutagenic call,"Test System: AMES SALMONELLA TYPHIMURIUM, Strain/Indicator: TA102, Metabolic Activation: NONE, Method: PREINCUBATION",inactive; negative
same,mutagenic call,"Test System: AMES SALMONELLA TYPHIMURIUM, Strain/Indicator: TA102, Metabolic Activation: RAT, LIVER, S-9, AROCLOR 1254, Method: PREINCUBATION",inactive; negative
same,mutagenic call,"Test System: AMES SALMONELLA TYPHIMURIUM, Strain/Indicator: TA104, Metabolic Activation: NONE, Method: PREINCUBATION",inactive; negative
same,mutagenic call,"Test System: AMES SALMONELLA TYPHIMURIUM, Strain/Indicator: TA104, Metabolic Activation: RAT, LIVER, S-9, AROCLOR 1254, Method: PREINCUBATION",inactive; negative
same,mutagenic call,"Test System: AMES SALMONELLA TYPHIMURIUM, Strain/Indicator: TA1535, Metabolic Activation: NONE, Method: PREINCUBATION",inactive; negative
same,mutagenic call,"Test System: AMES SALMONELLA TYPHIMURIUM, Strain/Indicator: TA1535, Metabolic Activation: RAT, LIVER, S-9, AROCLOR 1254, Method: PREINCUBATION",inactive; negative
same,mutagenic call,"Test System: AMES SALMONELLA TYPHIMURIUM, Strain/Indicator: TA1537, Metabolic Activation: NONE, Method: PREINCUBATION",inactive; negative
same,mutagenic call,"Test System: AMES SALMONELLA TYPHIMURIUM, Strain/Indicator: TA1537, Metabolic Activation: RAT, LIVER, S-9, AROCLOR 1254, Method: PREINCUBATION",inactive; negative
same,mutagenic call,"Test System: AMES SALMONELLA TYPHIMURIUM, Strain/Indicator: TA1538, Metabolic Activation: NONE, Method: PREINCUBATION",inactive; negative
same,mutagenic call,"Test System: AMES SALMONELLA TYPHIMURIUM, Strain/Indicator: TA1538, Metabolic Activation: RAT, LIVER, S-9, AROCLOR 1254, Method: PREINCUBATION",inactive; negative
same,mutagenic call,"Test System: CHINESE HAMSTER V-79, Strain/Indicator: V-79/8-AZAGUANINE, Metabolic Activation: NONE",inactive; negative
Cc1cc([N+](=O)[O-])c(C)c2c1[nH]c1ccccc12,mutagenic call,[1],active; positive
same,mutagenic call,[2],active; positive
same,mutagenic call,[3],inactive; negative
same,mutagenic call,[4],inactive; negative
same,mutagenic call,[5],inactive; negative
same,mutagenic call,[6],active; positive
same,mutagenic call,[7],active; positive
same,mutagenic call,[8],active; positive
COC(COC(N)=O)C1=C(N2CC2)C(=O)C(C)=C(N2CC2)C1=O (stereo unspecified),mutagenic call,[1],active; positive
same,mutagenic call,[3],active; positive
same,mutagenic call,[5],active; positive
same,mutagenic call,"Test System: CHINESE HAMSTER V-79, Strain/Indicator: V-79/6-THIOGUANINE, Metabolic Activation: NONE, Method: FLASK ASSAY",active; positive
same,mutagenic call,"Test System: E. COLI, Strain/Indicator: WP2 (HCR), Metabolic Activation: NONE, Method: STANDARD PLATE",active; positive
Cc1cc([N+](=O)[O-])c(C)c2c1[nH]c1ccc(O)cc12,mutagenic call,[1],active; positive
same,mutagenic call,[2],inactive; negative
same,mutagenic call,[3],inactive; negative
same,mutagenic call,[4],inactive; negative
same,mutagenic call,[5],active; positive
same,mutagenic call,[6],active; positive
same,mutagenic call,[7],active; positive
same,mutagenic call,[8],active; positive
CC1(C)C[C@@H]2[C@@]3(C(=O)O)C[C@@]3(C=O)C(C=O)=C[C@]2(O)C1,mutagenic call,"Test System: CHINESE HAMSTER V-79, Strain/Indicator: V-79/6-THIOGUANINE (HGPRT), Metabolic Activation: NONE",inactive; negative
CN(C)CCCNc1c2ccccc2nc2ccc([N+](=O)[O-])cc12,mutagenic call,"Test System: AMES SALMONELLA TYPHIMURIUM, Strain/Indicator: TA98(1,8-DNP6), Metabolic Activation: NONE, Method: STANDARD PLATE",active; positive
same,mutagenic call,"Test System: AMES SALMONELLA TYPHIMURIUM, Strain/Indicator: TA98(1,8-DNP6), Metabolic Activation: RAT, LIVER, S-9, Method: STANDARD PLATE",active; positive
same,mutagenic call,"Test System: AMES SALMONELLA TYPHIMURIUM, Strain/Indicator: TA98(NR), Metabolic Activation: NONE, Method: STANDARD PLATE",active; positive
same,mutagenic call,"Test System: AMES SALMONELLA TYPHIMURIUM, Strain/Indicator: TA98(NR), Metabolic Activation: RAT, LIVER, S-9, Method: STANDARD PLATE",active; positive
same,mutagenic call,[1],active; positive
same,mutagenic call,"Test System: AMES SALMONELLA TYPHIMURIUM, Strain/Indicator: TA98, Metabolic Activation: RAT, LIVER, S-9, Method: STANDARD PLATE",active; positive
same,mutagenic call,[3],active; positive
same,mutagenic call,[9],active; positive
same,mutagenic call,[5],active; positive
same,mutagenic call,"Test System: AMES SALMONELLA TYPHIMURIUM, Strain/Indicator: TA1537 PKM101, Metabolic Activation: NONE, Method: STANDARD PLATE",active; positive
same,mutagenic call,[10],active; positive
same,mutagenic call,"Test System: CHINESE HAMSTER V-79, Strain/Indicator: V-79/6-THIOGUANINE, Metabolic Activation: NONE, Method: STANDARD PLATE",inactive; negative
same,mutagenic call,"Test System: CHINESE HAMSTER V-79, Strain/Indicator: V-79/OUABAIN, Metabolic Activation: NONE, Method: STANDARD PLATE",inactive; negative
same,mutagenic call,"Test System: Escherichia coli, Strain/Indicator: CC107 (G6 to G7 frameshifts), Metabolic Activation: None, Method: Modified preincubation",active; positive
same,mutagenic call,"Test System: Escherichia coli, Strain/Indicator: CC108 (G6 to G5 frameshifts), Metabolic Activation: None, Method: Modified preincubation",active; positive
same,mutagenic call,"Test System: Escherichia coli, Strain/Indicator: CC109 (CG5 to CG4 frameshifts), Metabolic Activation: None, Method: Modified preincubation",active; positive
same,mutagenic call,"Test System: Escherichia coli, Strain/Indicator: CC111 (A7 to A6 frameshifts), Metabolic Activation: None, Method: Modified preincubation",active; positive
Cc1cc(N)c([N+](=O)[O-])c(C)c1N,mutagenic call,[1],inactive; negative
same,mutagenic call,"Test System: AMES SALMONELLA TYPHIMURIUM, Strain/Indicator: TA98, Metabolic Activation: RAT, LIVER, S-9, AROCLOR 1254, Method: STANDARD PLATE",inactive; negative
same,mutagenic call,[3],inactive; negative
same,mutagenic call,"Test System: AMES SALMONELLA TYPHIMURIUM, Strain/Indicator: TA100, Metabolic Activation: RAT, LIVER, S-9, AROCLOR 1254, Method: STANDARD PLATE",inactive; negative
same,mutagenic call,[9],inactive; negative
same,mutagenic call,"Test System: AMES SALMONELLA TYPHIMURIUM, Strain/Indicator: TA1535, Metabolic Activation: RAT, LIVER, S-9, AROCLOR 1254, Method: STANDARD PLATE",inactive; negative
same,mutagenic call,[5],inactive; negative
same,mutagenic call,"Test System: AMES SALMONELLA TYPHIMURIUM, Strain/Indicator: TA1537, Metabolic Activation: RAT, LIVER, S-9, AROCLOR 1254, Method: STANDARD PLATE",inactive; negative
same,mutagenic call,[10],inactive; negative
same,mutagenic call,"Test System: AMES SALMONELLA TYPHIMURIUM, Strain/Indicator: TA1538, Metabolic Activation: RAT, LIVER, S-9, AROCLOR 1254, Method: STANDARD PLATE",inactive; negative
